Like-named read-outs stand apart in the source and are kept apart here.
How the values were obtained:
[1] = biological target: β2-AR (Homo sapiens, UniProt P07550); experiment: Competition binding assay, recombinant β2-AR
[2] = Human plasma protein binding; format: in vitro ADME
[3] = Multiple rising dose Phase 1 PK, healthy subjects, day 14 (young males unless stated); format: in vivo, human
From the text: The steady state AUC geometric mean accumulation ratios were ˜2 in young male subjects and ˜2.8 in elderly subjects (male and female).
Although exposures were similar in middle-aged males when compared to young males, plasma concentrations were higher in elderly compared to middle-aged and young subjects. […] Furthermore, the steady state AUC geometric mean accumulation ratios were ˜2 in young males and ˜2.8 in the elderly.

Sequence of β2-AR (P07550 whole entry): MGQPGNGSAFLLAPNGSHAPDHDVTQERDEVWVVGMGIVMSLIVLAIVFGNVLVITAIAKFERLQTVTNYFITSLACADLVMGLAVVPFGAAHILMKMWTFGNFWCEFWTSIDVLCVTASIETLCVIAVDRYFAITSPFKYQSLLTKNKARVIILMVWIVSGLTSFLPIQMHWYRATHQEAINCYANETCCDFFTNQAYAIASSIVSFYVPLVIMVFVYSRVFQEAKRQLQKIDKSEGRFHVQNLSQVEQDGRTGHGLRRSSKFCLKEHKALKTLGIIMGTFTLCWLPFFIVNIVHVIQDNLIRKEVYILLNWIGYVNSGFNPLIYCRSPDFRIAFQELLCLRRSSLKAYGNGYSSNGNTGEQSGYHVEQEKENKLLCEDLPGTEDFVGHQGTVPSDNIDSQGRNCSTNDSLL

O=C(Nc1ccc(C[C@@H]2CC[C@H]([C@H](O)c3ccccc3)N2)cc1)[C@@H]1CCc2nccc(=O)n21 [Vibegron, (6S)-N-[4-[[(2S,5R)-5-[(R)-hydroxy(phenyl)methyl]pyrrolidin-2-yl]methyl]phenyl]-4-oxo-7,8-dihydro-6H-pyrrolo[1,2-a]pyrimidine-6-carboxamide]
binding to β2-AR [1]: does not bind
bound to human plasma proteins [2]: approximately 49%
unbound in human plasma [2]: 49%
Ctrough ([3]; 25 mg QD): 5.07 ± 0.711 ng/mL
Ctrough ([3]; 50 mg QD): 15.2 ± 5.07 ng/mL
Ctrough ([3]; 50 mg QD, Japanese): 16.5 ± 6.05 ng/mL
Ctrough ([3]; 100 mg QD): 31.9 ± 11.5 ng/mL
steady state Cmax, elderly vs young males ([3]; 100 mg QD): ~1.3 fold
Ctrough ([3]; 100 mg QD, elderly male and female): 54.2 ± 15.3 ng/mL
fe0-24 hr, ss ([3]; 100 mg, elderly): ~17%
Cmax ([3]; 150 mg QD, middle-aged female, fasted): 346 ± 139 ng/mL
fe0-24 hr, ss ([3]; 100 and 150 mg, young males): ~14%
steady state exposure (AUC0-24) higher, elderly Japanese vs non-Japanese ([3]; Day 14): 35%
AUC(0-t) ([3]; both sexes, human, plasma, oral, 100 mg, 100 mg QD, elderly Japanese, read-out: AUC0-24): 2920 ± 693 ng·h/mL
half-life ([3]; both sexes, human, plasma, oral, 100 mg, 100 mg QD, elderly Japanese, read-out: t1/2 (converted)): 75.1 ± 3.9 h
AUC(0-t) ([3]; both sexes, human, plasma, oral, 100 mg, 100 mg QD, elderly male and female, read-out: AUC0-24): 2230 ± 671 ng·h/mL
Cmax ([3]; both sexes, human, plasma, oral, 100 mg, 100 mg QD, elderly male and female, read-out: Cmax): 224 ± 92 ng/mL
half-life ([3]; both sexes, human, plasma, oral, 100 mg, 100 mg QD, elderly male and female, read-out: t1/2 (converted)): 88.4 ± 10.7 h
CL renal ([3]; both sexes, human, urine, oral, 100 mg, elderly male and female, read-out: renal clearance CLR at steady state): 127 mL/min
Cmax higher than healthy young males ([3]; elderly and females): 50-70%
AUC(0-t) ([3]; female, human, plasma, oral, 100 mg, elderly females, read-out: steady state AUC0-24hr): 2620 ng·h/mL
Cmax ([3]; female, human, plasma, oral, 100 mg, elderly females, read-out: steady state Cmax): 278 ng/mL
AUC(0-t) ([3]; female, human, plasma, oral, 150 mg, 150 mg QD, middle-aged female, fasted, read-out: AUC0-24): 3180 ± 925 ng·h/mL
Cmax ([3]; female, human, plasma, oral, 150 mg, 150 mg QD, middle-aged female, fasted, read-out: Cmax): 246 ± 139 ng/mL
half-life ([3]; female, human, plasma, oral, 150 mg, 150 mg QD, middle-aged female, read-out: t1/2 (converted)): 83.1 ± 17.2 h
Cmax higher, elderly Japanese vs non-Japanese ([3]; human, in vivo): 82%
steady state AUC, middle-aged females vs middle-aged males ([3]; human, in vivo): ~1.5 fold
steady state exposure higher, Japanese vs non-Japanese young males ([3]; human, in vivo): ~30%
half-life ([3]; human, plasma, oral, young and elderly subjects, read-out: terminal t1/2): 59 to 94 h
AUC(0-t) ([3]; male, human, plasma, oral, 25 mg, 25 mg QD, read-out: AUC0-24): 164 ng·h/mL
Cmax ([3]; male, human, plasma, oral, 25 mg, 25 mg QD, read-out: Cmax): 15.6 ± 6.93 ng/mL
half-life ([3]; male, human, plasma, oral, 25 mg, 25 mg QD, read-out: t1/2 (converted)): 94 ± 9.6 h
AUC(0-t) ([3]; male, human, plasma, oral, 50 mg, 50 mg QD, Japanese, read-out: AUC0-24): 613 ± 296 ng·h/mL
Cmax ([3]; male, human, plasma, oral, 50 mg, 50 mg QD, Japanese, read-out: Cmax): 56.9 ± 34.2 ng/mL
half-life ([3]; male, human, plasma, oral, 50 mg, 50 mg QD, Japanese, read-out: t1/2 (converted)): 69.4 ± 6.6 h
AUC(0-t) ([3]; male, human, plasma, oral, 50 mg, 50 mg QD, read-out: AUC0-24): 507 ± 176 ng·h/mL
Cmax ([3]; male, human, plasma, oral, 50 mg, 50 mg QD, read-out: Cmax): 41.5 ± 12.3 ng/mL
half-life ([3]; male, human, plasma, oral, 50 mg, 50 mg QD, read-out: t1/2 (converted)): 77.2 ± 8.9 h
AUC(0-t) ([3]; male, human, plasma, oral, 100 mg, 100 mg QD, Japanese, read-out: AUC0-24): 1710 ± 542 ng·h/mL
Cmax ([3]; male, human, plasma, oral, 100 mg, 100 mg QD, Japanese, read-out: Cmax): 180 ± 111 ng/mL
half-life ([3]; male, human, plasma, oral, 100 mg, 100 mg QD, Japanese, read-out: t1/2 (converted)): 56.8 ± 19.2 h
AUC(0-t) ([3]; male, human, plasma, oral, 100 mg, 100 mg QD, read-out: AUC0-24): 1280 ± 529 ng·h/mL
Cmax ([3]; male, human, plasma, oral, 100 mg, 100 mg QD, read-out: Cmax): 169 ± 80.9 ng/mL
half-life ([3]; male, human, plasma, oral, 100 mg, 100 mg QD, read-out: t1/2 (converted)): 79.7 ± 11.5 h
half-life ([3]; male, human, plasma, oral, 150 mg, 150 mg QD, middle-aged male, after 28 days, read-out: t1/2 (converted)): 72.7 h
AUC(0-t) ([3]; male, human, plasma, oral, 150 mg, 150 mg QD, middle-aged male, read-out: AUC0-24): 2170 ± 452 ng·h/mL
Cmax ([3]; male, human, plasma, oral, 150 mg, 150 mg QD, middle-aged male, read-out: Cmax): 293 ± 67.1 ng/mL
AUC(0-t) ([3]; male, human, plasma, oral, 150 mg, 150 mg QD, read-out: AUC0-24): 2280 ± 1140 ng·h/mL
Cmax ([3]; male, human, plasma, oral, 150 mg, 150 mg QD, read-out: Cmax): 305 ± 215 ng/mL
half-life ([3]; male, human, plasma, oral, 150 mg, 150 mg QD, read-out: t1/2 (converted)): 79.2 ± 9.2 h
AUC(0-t) ([3]; male, human, plasma, oral, 200 mg, 200 mg QD, Japanese, read-out: AUC0-24): 4370 ± 618 ng·h/mL
Cmax ([3]; male, human, plasma, oral, 200 mg, 200 mg QD, Japanese, read-out: Cmax): 631 ± 154 ng/mL
half-life ([3]; male, human, plasma, oral, 200 mg, 200 mg QD, Japanese, read-out: t1/2 (converted)): 59.5 ± 1.9 h
AUC(0-t) ([3]; male, human, plasma, oral, 200 mg, 200 mg QD, read-out: AUC0-24): 3200 ± 1120 ng·h/mL
Cmax ([3]; male, human, plasma, oral, 200 mg, 200 mg QD, read-out: Cmax): 313 ± 168 ng/mL
half-life ([3]; male, human, plasma, oral, 200 mg, 200 mg QD, read-out: t1/2 (converted)): 64.7 ± 6.5 h
AUC(0-t) ([3]; male, human, plasma, oral, 300 mg, 300 mg QD, read-out: AUC0-24): 6980 ± 1040 ng·h/mL
Cmax ([3]; male, human, plasma, oral, 300 mg, 300 mg QD, read-out: Cmax): 733 ± 164 ng/mL
half-life ([3]; male, human, plasma, oral, 300 mg, 300 mg QD, read-out: t1/2 (converted)): 61.7 ± 7.3 h
AUC(0-t) ([3]; male, human, plasma, oral, 400 mg, 400 mg QD, read-out: AUC0-24): 10500 ± 2140 ng·h/mL
Cmax ([3]; male, human, plasma, oral, 400 mg, 400 mg QD, read-out: Cmax): 1400 ± 257 ng/mL
